ChEMBL document CHEMBL1141126, “Improving the antiviral efficacy and selectivity of HIV-1 reverse transcriptase inhibitor TSAO-T by the introduction of functional groups at the N-3 position” (J Med Chem, 2005)

What was measured:
[1] = molecular target: Human immunodeficiency virus type 1 reverse transcriptase (Human immunodeficiency virus 1, UniProt Q72547); assay: Inhibitory concentration required to inhibit recombinant HIV-1 reverse transcriptase
[2] = system: CCRF-CEM; assay: Cytostatic concentration required to inhibit cell proliferation in human CEM cell line; Range 10-50; assay type: functional
[3] = system: CCRF-CEM; assay: Ratio of cytostatic concentration to effective concentration in human CEM cell line; Range 1000-5000; assay type: functional
[4] = system: Human immunodeficiency virus 1; assay: Effective concentration required to inhibit HIV-1 induced cytopathicity in human CEM cell line; assay type: functional, organism-based; conditions: Human immunodeficiency virus 1, CCRF-CEM
[5] = system: Human immunodeficiency virus 2; assay: Effective concentration required to inhibit HIV-2 induced cytopathicity in human CEM cell line; assay type: functional, organism-based; conditions: Human immunodeficiency virus 2, CCRF-CEM
[6] = system: Human immunodeficiency virus 2; assay: Effective concentration required to inhibit HIV-2 induced cytopathicity in human MT-4 cell line; assay type: functional, organism-based; conditions: Human immunodeficiency virus 2, MT4
[7] = system: Human immunodeficiency virus 1; assay: Effective concentration required to inhibit HIV-1/138K induced cytopathicity in human CEM cell line; assay type: functional, organism-based; conditions: Human immunodeficiency virus 1, CCRF-CEM
[8] = system: CCRF-CEM; assay: Cytostatic concentration required to inhibit cell proliferation in human CEM cell line; assay type: functional
[9] = system: CCRF-CEM; assay: Ratio of cytostatic concentration to effective concentration in human CEM cell line; assay type: functional
[10] = system: Human immunodeficiency virus 1; assay: Effective concentration required to inhibit HIV-1 induced cytopathicity in human MT-4 cell line; assay type: functional, organism-based; conditions: Human immunodeficiency virus 1, MT4

Structure (SMILES) | IC50 [1] | CC50 [2] | SI [3] | EC50 [4] | EC50 [5] | EC50 [6] | EC50 [7] | CC50 [8] | SI [9] | EC50 [10]
CNC(=O)CCCCn1c(=O)c(C)cn([C@@H]2O[C@H](CO[Si](C)(C)C(C)(C)C)[C@@]3(OS(=O)(=O)C=C3N)[C@H]2O[Si](C)(C)C(C)(C)C)c1=O | 0.56 µM | 50 µM | 5000 | 0.01 µM | > 10 µM | > 10 µM | ≥ 2 µM |  |  | 
COC(=O)/C=C/Cn1c(=O)c(C)cn([C@@H]2O[C@H](CO[Si](C)(C)C(C)(C)C)[C@@]3(OS(=O)(=O)C=C3N)[C@H]2O[Si](C)(C)C(C)(C)C)c1=O | 30 µM |  |  | 0.06 µM | > 10 µM | > 250 µM | 5.5 µM | 142 µM | 2367 | 0.13 µM
